Source: patent US20100041089A1, “IMPROVED METHOD FOR DETECTING CHEMICAL […]” (priority 2006, published 2010)

Test system: yeast genes (expressed mRNA)
Experiment: DNA chip measurement of expressed mRNA of yeast genes after culture with a toxic chemical substance
Type: cell-based, Saccharomyces cerevisiae S288C
Summary of the method: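 Yeast S288C, YPD 25° C; toxicant at log phase, 2 h, sublethal growth-inhibiting conc.; no-chemical control. Hot SDS/acetate RNA extraction, oligo-dT mRNA, Cy3/Cy5-dUTP RT. Whole-genome chip, 65° C >12 h. Readout: treated/control intensity ratio, ≥2 significant.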

Structure (SMILES): CN(C)C(=S)SSC(=S)N(C)C [(10), Tetramethylthiuram disulfide]
- The level of expressed mRNA in the presence of chemical substance/The level of expressed mRNA in the absence of chemical substance (yeast gene YFL010C, cultured two hours with substance): 1.4
- The level of expressed mRNA in the presence of chemical substance/The level of expressed mRNA in the absence of chemical substance (yeast gene YFL024C, cultured two hours with substance): 0.5
- The level of expressed mRNA in the presence of chemical substance/The level of expressed mRNA in the absence of chemical substance (yeast gene YFL032W, cultured two hours with substance): 0.6
- The level of expressed mRNA in the presence of chemical substance/The level of expressed mRNA in the absence of chemical substance (yeast gene YFL056C): 31.3
- The level of expressed mRNA in the presence of chemical substance/The level of expressed mRNA in the absence of chemical substance (yeast gene YFL056C, cultured for two hours with substance): 31.3
- The level of expressed mRNA in the presence of chemical substance/The level of expressed mRNA in the absence of chemical substance (yeast gene YFL057C): 46.1
- The level of expressed mRNA in the presence of chemical substance/The level of expressed mRNA in the absence of chemical substance (yeast gene YFL057C, cultured for two hours with substance): 46.1
- The level of expressed mRNA in the presence of chemical substance/The level of expressed mRNA in the absence of chemical substance (yeast gene YGL037C, cultured two hours with substance): 1.6
- The level of expressed mRNA in the presence of chemical substance/The level of expressed mRNA in the absence of chemical substance (yeast gene YGL046W, cultured two hours with substance): 4.5
- The level of expressed mRNA in the presence of chemical substance/The level of expressed mRNA in the absence of chemical substance (yeast gene YGL047W, cultured two hours with substance): 5.7
- The level of expressed mRNA in the presence of chemical substance/The level of expressed mRNA in the absence of chemical substance (yeast gene YGL053W, cultured two hours with substance): 2.4
- The level of expressed mRNA in the presence of chemical substance/The level of expressed mRNA in the absence of chemical substance (yeast gene YGL121C, cultured two hours with substance): 15.0
- The level of expressed mRNA in the presence of chemical substance/The level of expressed mRNA in the absence of chemical substance (yeast gene YGL136C, cultured two hours with substance): 1.0
- The level of expressed mRNA in the presence of chemical substance/The level of expressed mRNA in the absence of chemical substance (yeast gene YGL184C): 66.8
- The level of expressed mRNA in the presence of chemical substance/The level of expressed mRNA in the absence of chemical substance (yeast gene YGL193C, cultured two hours with substance): 1.0
- The level of expressed mRNA in the presence of chemical substance/The level of expressed mRNA in the absence of chemical substance (yeast gene YGL199C, cultured two hours with substance): 0.1
- The level of expressed mRNA in the presence of chemical substance/The level of expressed mRNA in the absence of chemical substance (yeast gene YGR101W, cultured two hours with substance): 1.4
- The level of expressed mRNA in the presence of chemical substance/The level of expressed mRNA in the absence of chemical substance (yeast gene YGR110W, cultured two hours with substance): 4.8
- The level of expressed mRNA in the presence of chemical substance/The level of expressed mRNA in the absence of chemical substance (yeast gene YGR130C, cultured two hours with substance): 1.5
- The level of expressed mRNA in the presence of chemical substance/The level of expressed mRNA in the absence of chemical substance (yeast gene YGR142W, cultured two hours with substance): 12.2
- The level of expressed mRNA in the presence of chemical substance/The level of expressed mRNA in the absence of chemical substance (yeast gene YGR154C, cultured two hours with substance): 9.1
- The level of expressed mRNA in the presence of chemical substance/The level of expressed mRNA in the absence of chemical substance (yeast gene YGR213C): 6.9
- The level of expressed mRNA in the presence of chemical substance/The level of expressed mRNA in the absence of chemical substance (yeast gene YGR221C, cultured two hours with substance): 0.7
- The level of expressed mRNA in the presence of chemical substance/The level of expressed mRNA in the absence of chemical substance (yeast gene YHL040C (detoxification protein gene)): 11.3
- The level of expressed mRNA in the presence of chemical substance/The level of expressed mRNA in the absence of chemical substance (yeast gene YHL040C (transport facilitation protein gene)): 11.3
- The level of expressed mRNA in the presence of chemical substance/The level of expressed mRNA in the absence of chemical substance (yeast gene YHL047C (detoxification protein gene)): 11.9
- The level of expressed mRNA in the presence of chemical substance/The level of expressed mRNA in the absence of chemical substance (yeast gene YHL047C (transport facilitation protein gene)): 11.9
- The level of expressed mRNA in the presence of chemical substance/The level of expressed mRNA in the absence of chemical substance (yeast gene YHR029C, cultured two hours with substance): 8.6
- The level of expressed mRNA in the presence of chemical substance/The level of expressed mRNA in the absence of chemical substance (yeast gene YHR071W): 7.2
- The level of expressed mRNA in the presence of chemical substance/The level of expressed mRNA in the absence of chemical substance (yeast gene YHR116W, cultured two hours with substance): 2.7
- The level of expressed mRNA in the presence of chemical substance/The level of expressed mRNA in the absence of chemical substance (yeast gene YHR138C, cultured two hours with substance): 4.6
- The level of expressed mRNA in the presence of chemical substance/The level of expressed mRNA in the absence of chemical substance (yeast gene YHR139C): 46.6
- The level of expressed mRNA in the presence of chemical substance/The level of expressed mRNA in the absence of chemical substance (yeast gene YHR199C, cultured two hours with substance): 6.0
- The level of expressed mRNA in the presence of chemical substance/The level of expressed mRNA in the absence of chemical substance (yeast gene YIL023C, cultured two hours with substance): 1.6
- The level of expressed mRNA in the presence of chemical substance/The level of expressed mRNA in the absence of chemical substance (yeast gene YIL024C, cultured two hours with substance): 1.8
- The level of expressed mRNA in the presence of chemical substance/The level of expressed mRNA in the absence of chemical substance (yeast gene YIL041W, cultured two hours with substance): 1.4
- The level of expressed mRNA in the presence of chemical substance/The level of expressed mRNA in the absence of chemical substance (yeast gene YIL087C, cultured two hours with substance): 1.8
- The level of expressed mRNA in the presence of chemical substance/The level of expressed mRNA in the absence of chemical substance (yeast gene YIL102C, cultured two hours with the chemical substance): 0.3
- The level of expressed mRNA in the presence of chemical substance/The level of expressed mRNA in the absence of chemical substance (yeast gene YIL117C, cultured two hours with substance): 3.5
- The level of expressed mRNA in the presence of chemical substance/The level of expressed mRNA in the absence of chemical substance (yeast gene YIL167W): 12.7
- The level of expressed mRNA in the presence of chemical substance/The level of expressed mRNA in the absence of chemical substance (yeast gene YIL168W): 19.3
- The level of expressed mRNA in the presence of chemical substance/The level of expressed mRNA in the absence of chemical substance (yeast gene YIR038C (detoxification protein gene)): 4.5
- The level of expressed mRNA in the presence of chemical substance/The level of expressed mRNA in the absence of chemical substance (yeast gene YJL020C, cultured two hours with substance): 1.0
- The level of expressed mRNA in the presence of chemical substance/The level of expressed mRNA in the absence of chemical substance (yeast gene YJL057C, cultured two hours with substance): 6.1
- The level of expressed mRNA in the presence of chemical substance/The level of expressed mRNA in the absence of chemical substance (yeast gene YJL066C, cultured two hours with substance): 2.1
- The level of expressed mRNA in the presence of chemical substance/The level of expressed mRNA in the absence of chemical substance (yeast gene YJL082W, cultured two hours with substance): 2.9
- The level of expressed mRNA in the presence of chemical substance/The level of expressed mRNA in the absence of chemical substance (yeast gene YJL100W, cultured two hours with the chemical substance): 2.7
- The level of expressed mRNA in the presence of chemical substance/The level of expressed mRNA in the absence of chemical substance (yeast gene YJL108C, cultured two hours with substance): 0.7
- The level of expressed mRNA in the presence of chemical substance/The level of expressed mRNA in the absence of chemical substance (yeast gene YJL149W, cultured two hours with substance): 3.8
- The level of expressed mRNA in the presence of chemical substance/The level of expressed mRNA in the absence of chemical substance (yeast gene YJL151C, cultured two hours with substance): 1.6
